In ChEMBL document CHEMBL1201862, “PubChem BioAssay data set” (2004):
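Step 1: Grow cells in 96-well plates. Step 2: Expose to compound for 48 hours at 5 concentrations. Step 3: Interpolate endpoints linearly; if unreached, use highest concentration. The concentration for 50% growth inhibition is given as GI50.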 Activity calls are given as the source filed them. Cut-off read from the data, not from the text of the source: active = GI50 up to about 1.1 µM and inactive = higher.

How the values were obtained:
Experiment in all cases: NCI-60 cell line screen, 48 h
OVCAR-3 = system: OVCAR-3
DU-145 = system: DU-145
OVCAR-8 = system: OVCAR-8
SF-539 = system: SF-539
T47D = system: T47D
MDA-MB-231 = system: MDA-MB-231
A498 = system: A498
PC-3 = system: PC-3
HT-29 = system: HT-29
NCI-H23 = system: NCI-H23
UACC-62 = system: UACC-62
NCI-H226 = system: NCI-H226
IGROV-1 = system: IGROV-1
TK-10 = system: TK-10
MOLT-4 = system: MOLT-4
MDA-N = system: MDA-N
SK-OV-3 = system: SK-OV-3
KM12 = system: KM12
786-0 = system: 786-0
HCT-15 = system: HCT-15
ACHN = system: ACHN
NCI/ADR-RES = system: NCI/ADR-RES
SR = system: SR
SNB-75 = system: SNB-75
HCT-116 = system: HCT-116
SK-MEL-28 = system: SK-MEL-28
LOX IMVI = system: LOX IMVI
HOP-92 = system: HOP-92
SK-MEL-2 = system: SK-MEL-2
MCF7 = system: MCF7
BT-549 = system: BT-549
SF-295 = system: SF-295
SN12C = system: SN12C
RXF 393 = system: RXF 393
EKVX = system: EKVX
NCI-H522 = system: NCI-H522
A549 = system: A549
COLO 205 = system: COLO 205
M14 = system: M14
UO-31 = system: UO-31
Malme-3M = system: Malme-3M
HL-60 = system: HL-60
UACC-257 = system: UACC-257
NCI-H460 = system: NCI-H460
CCRF-CEM = system: CCRF-CEM
CAKI-1 = system: CAKI-1
SW-620 = system: SW-620
Hs-578T = system: Hs-578T
HOP-62 = system: HOP-62
U-251 = system: U-251
SK-MEL-5 = system: SK-MEL-5
SF-268 = system: SF-268
OVCAR-5 = system: OVCAR-5
RPMI-8226 = system: RPMI-8226
OVCAR-4 = system: OVCAR-4
MDA-MB-435 = system: MDA-MB-435
SNB-19 = system: SNB-19
K562 = system: K562
HCC 2998 = system: HCC 2998

Measured: GI50

Nc1nc(N)c2cc(-c3cc4ccccc4[nH]3)ccc2n1
inactive: OVCAR-3 35.6 µM | DU-145 21.3 µM | OVCAR-8 32.5 µM | SF-539 19.5 µM | T47D 3.48 µM | MDA-MB-231 17.2 µM | A498 18.1 µM | PC-3 26.2 µM | HT-29 15.5 µM | NCI-H23 27.5 µM | UACC-62 17.4 µM | NCI-H226 27.7 µM | IGROV-1 15.8 µM | TK-10 17.7 µM | MOLT-4 26.5 µM | MDA-N 19.8 µM | SK-OV-3 45.3 µM | KM12 17.8 µM | 786-0 22.5 µM | ACHN 18.9 µM | NCI/ADR-RES 30.3 µM | SR 30.2 µM | SNB-75 32.4 µM | HCT-116 31.8 µM | SK-MEL-28 22.2 µM | LOX IMVI 18.5 µM | HOP-92 12.2 µM | SK-MEL-2 18.2 µM | MCF7 18.1 µM | BT-549 23 µM | SF-295 27.6 µM | SN12C 33 µM | RXF 393 24.8 µM | EKVX 29 µM | NCI-H522 17.5 µM | A549 32.2 µM | COLO 205 10.3 µM | M14 17.6 µM | UO-31 15.7 µM | Malme-3M 16 µM | HL-60 19.7 µM | UACC-257 16.2 µM | NCI-H460 19.2 µM | CCRF-CEM 35.2 µM | CAKI-1 27.4 µM | SW-620 30.8 µM | Hs-578T 32.1 µM | HOP-62 30.8 µM | U-251 30.4 µM | SK-MEL-5 15.2 µM | SF-268 22.2 µM | OVCAR-5 18.6 µM | RPMI-8226 14.3 µM | OVCAR-4 21.9 µM | MDA-MB-435 18.5 µM | SNB-19 33 µM
22.1 µM: HCT-15

Clc1cccc(Cl)c1C1SCC2=Nc3ccccc3CN21 (configuration not stated)
inactive: OVCAR-3 15 µM | DU-145 25 µM | SF-539 16.2 µM | T47D 21.4 µM | MDA-MB-231 42.9 µM | A498 71.8 µM | PC-3 18.7 µM | NCI-H23 14.6 µM | UACC-62 27.4 µM | IGROV-1 22.9 µM | TK-10 > 100 µM | MOLT-4 31.3 µM | MDA-N 36.8 µM | SK-OV-3 20.6 µM | KM12 20.8 µM | 786-0 13.2 µM | NCI/ADR-RES 19.4 µM | SR 34.1 µM | SNB-75 38.3 µM | HCT-116 12.1 µM | SK-MEL-28 23.3 µM | LOX IMVI 19.1 µM | HOP-92 40.7 µM | MCF7 20.2 µM | BT-549 66.4 µM | SF-295 13.2 µM | SN12C 46.7 µM | RXF 393 27.8 µM | EKVX 23.7 µM | A549 20.5 µM | COLO 205 14.1 µM | M14 18.4 µM | UO-31 17.3 µM | K562 31.3 µM | HL-60 21.7 µM | UACC-257 34.7 µM | HCC 2998 29.6 µM | NCI-H460 19.5 µM | CCRF-CEM 32.4 µM | CAKI-1 60.3 µM | SW-620 33.3 µM | Hs-578T 24.8 µM | HOP-62 19.5 µM | U-251 33.2 µM | SK-MEL-5 15.8 µM | SF-268 39.9 µM | OVCAR-5 41.5 µM | RPMI-8226 17.1 µM | OVCAR-4 80.4 µM | MDA-MB-435 27.2 µM | SNB-19 5.18 µM
32 µM: HCT-15

CC1(O)CC(=O)c2c(cc3ccc(-c4c5c(c(O)c6c(O)cccc46)C(=O)CC(C)(O)C5)c(O)c3c2O)C1 (configuration not stated)
0.09 µM: HCT-15
inactive: UACC-62 1.46 µM | SK-OV-3 2.01 µM | SN12C 1.39 µM
active: OVCAR-3 0.0953 µM | DU-145 0.33 µM | OVCAR-8 0.332 µM | SF-539 0.174 µM | T47D 0.562 µM | MDA-MB-231 0.311 µM | A498 0.465 µM | PC-3 0.0834 µM | HT-29 0.409 µM | NCI-H23 0.0574 µM | NCI-H226 0.448 µM | IGROV-1 0.348 µM | TK-10 0.767 µM | MOLT-4 0.422 µM | MDA-N 0.867 µM | KM12 0.0278 µM | 786-0 0.435 µM | ACHN 0.125 µM | NCI/ADR-RES 0.441 µM | SR 0.367 µM | SNB-75 0.129 µM | HCT-116 0.0647 µM | SK-MEL-28 0.326 µM | LOX IMVI 0.817 µM | HOP-92 0.242 µM | SK-MEL-2 0.271 µM | MCF7 0.199 µM | BT-549 0.347 µM | SF-295 0.179 µM | RXF 393 < 0.01 µM | EKVX 0.562 µM | NCI-H522 0.213 µM | A549 0.365 µM | COLO 205 0.0442 µM | M14 0.406 µM | UO-31 0.212 µM | Malme-3M 0.248 µM | K562 0.298 µM | HL-60 0.16 µM | UACC-257 0.324 µM | NCI-H460 0.16 µM | CCRF-CEM 0.38 µM | CAKI-1 0.401 µM | SW-620 0.468 µM | Hs-578T 0.265 µM | HOP-62 0.296 µM | U-251 0.06 µM | SK-MEL-5 0.187 µM | SF-268 0.194 µM | OVCAR-5 0.611 µM | RPMI-8226 0.0509 µM | OVCAR-4 0.27 µM | MDA-MB-435 0.279 µM | SNB-19 0.18 µM
